What is called IC50 is the midpoint of a concentration-inhibition curve.

Drawing on patent US7083814B2, “Antiviral substances from plant cuticular and epicuticular material” (Rutgers, The State University of New Jersey, priority 2000, dated 2006), this text covers positive control result and IC50 for 2 compounds.

For one series, the system named is HIV-1RF. The series can be described thus: Anti-HIV-1 Cytoprotection Assay (XTT). The following applies: AZT control.
Series [1] relates to herpes simplex virus type 1 strain HF. The series can be described thus: Anti-HSV-1 Cytoprotection Assay (CPE reduction, MTS).
Another series in a line: in vitro. The following applies: African green monkey.

From the text for in vitro: Anti-HSV-1 Cytoprotection Assay.

Turning to `Cc1cn([C@H]2C[C@H](N=[N+]=[N-])[C@@H](CO)O2)c(=O)[nH]c1=O` [AZT], the positive control result in the series on HIV-1RF was “within the expected parameters”.

Turning to `Nc1nc2c(ncn2COCCO)c(=O)[nH]1` [Acyclovir], the half-inhibitory concentration (IC50) in series [1] (Human alphaherpesvirus 1) is 2.4 µM; in series [1] (Human alphaherpesvirus 1, Vero), 2.4 µM; in the series “in vitro” it was > 100 µM.
